Measured values reported in patent publication US8536120B2 (The Administrators of The Tulane Educational Fund, priority 2006, dated 2013).
“And” between values parts separate entries of the source, which are not always exact repeats. Equal entries are not always repeated. Where no end group is shown, it is not given here. [ ]: non-standard residue; d: D form. d2Nal = N[C@H](Cc1ccc2ccccc2c1)C(=O)O

Assays:
[1] = target: T1, Ghrelin/GHRP/GHS Receptor (Rattus norvegicus, UniProt O08725); experiment: In vivo assay of GH release in rat, i.v. peptide alone or plus stimulator, serum GH by RIA; conditions: Table 4; Pentobarbital Rats; peptide 30 μg i.v. + stimulator DAla-DβNal-Ala-Trp-DPhe-Lys-NH2 1 μg
T1 sequence (O08725 whole entry): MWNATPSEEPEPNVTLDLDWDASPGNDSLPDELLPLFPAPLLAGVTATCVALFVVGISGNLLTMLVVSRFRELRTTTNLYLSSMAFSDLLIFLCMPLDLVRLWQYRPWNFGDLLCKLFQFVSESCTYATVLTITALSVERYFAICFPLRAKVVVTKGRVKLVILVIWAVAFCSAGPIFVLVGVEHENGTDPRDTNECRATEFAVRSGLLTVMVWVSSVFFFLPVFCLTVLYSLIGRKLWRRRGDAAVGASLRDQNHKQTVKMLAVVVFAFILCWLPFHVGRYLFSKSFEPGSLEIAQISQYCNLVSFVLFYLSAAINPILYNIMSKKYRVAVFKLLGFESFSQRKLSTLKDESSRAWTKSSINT
Procedure: (§1) The peptides were synthesized by the solid phase method and purified by HPLC. GH was determined by Radioimmunoassay (RIA).
For the in vivo assay of GH Release in rat, immature female Sprague Dawley rats were obtained from Charles River from Wilmington, Mass. After arrival they were housed at 25° C. with a 14:10 h light:dark cycle. Water and Purina rat chow were available at libitum. Pups were weaned at 21 days of age.
Immature twenty six day old female Sprague Dawley rats, 3-6 rats per treatment dose, were pretreated with pentobarbital 20 minutes before iv injection of vehicle/peptide or peptide plus stimulator. Injection was made as a 0.1 ml solution. For the non-pentobarbital treated rat assay, peptides were administered iv into the tail vein of conscious rats. All animals were sacrificed by guillotine after iv peptide or vehicle. Trunk blood was collected at +10-15 minutes […], allowed to clot, centrifuged and serum stored until assayed for GH levels by RIA. The GH RIA reagents were distributed by the NIH. Control data was collected from rats treated with only the corresponding vehicle in the absence of peptide or stimulator. Control stimulated data was collected from rats treated with stimulator alone in the absence of any peptide.

[2] = target: T1, Ghrelin/GHRP/GHS Receptor; experiment: In vitro cell culture method: GH release from cell culture of pituitary cells, peptide alone or plus stimulator; assay type: cell-based; design: from cell culture of pituitary cells; endogenous in cells; host or cells: dispersed primary rat anterior pituitary cells, 4 days in culture; conditions: for GH release, first line of entry (mark P + S): stimulator 1 ng/ml; for Unstimulated Basal GH release: Table 8
Procedure: as §1
In vitro GH Release-Female rats of the CD-1 strain were housed in a constant temperature room at 24° C. with 14 h light and 10 h darkness. The rats were fed Purina Rat chow and water at libitum. All studies were started between 0800-1000 hours. Pituitaries of mature female Sprague Dawley rats were rapidly removed after decapitation, neurointermediate lobe discarded and then placed in a pH 7.4 buffer. The pituitaries were cut into ˜3-mm pieces and then transferred to a flask containing HEPS buffer with trypsin and incubated at 37° C. Cells were triturated several times during this period. After dispersion, the cells were collected by centrifugation, wash with DMEM and placed into culture well. Cell cultures were maintained for 4 days at 37° with 8% CO2 added to the incubator atmosphere. After 4 days in culture, cells were washed with lactated Ringer's solution adjusted to pH 7.2-7.4 and then vehicle, peptide alone or peptide plus stimulator was added to media. Incubation time was 60-120 minutes after which media was removed from each well for GH determination. The GH RIA reagents were distributed by the NIH. Control data was collected from cell cultures treated with only the corresponding vehicle in the absence of peptide or stimulator. Control stimulated data was collected from cell cultures treated with stimulator alone in the absence of any peptide.

[dA][d2Nal][dK][dW]FK-NH2
Stimulated GH release (P + S) [1]: 2884 ± 828 ng/mL

CC(=O)NCCCC[C@H](NC(=O)[C@@H](N)COCc1ccccc1)C(=O)N[C@@H](Cc1c[nH]c2ccccc12)C(=O)N1CCC(c2ccccc2)CC1 [(S)—N—((S)-3-(1H-indol-3-yl)-1-oxo-1-(4-phenylpiperidin-1-yl)propan-2-yl)-6-acetamido-2-((S)-2-amino-3-(benzyloxy)propanamido)hexanamide]
GH release, second line of entry (no mark) ([2]; Table 10, 10 μg/ml): 571 ± 32 ng/mL
GH release, first line of entry (mark P + S) ([2]; Table 10, 10 μg/ml): 388 ± 41 ng/mL
GH release, second line of entry (no mark) ([2]; Table 10, 30 μg/ml): 399 ± 24 ng/mL
GH release, first line of entry (mark P + S) ([2]; Table 10, 30 μg/ml): 273 ± 39 ng/mL

N[C@H](COCc1ccccc1)C(=O)N1CCN(c2ccccc2)CC1 [D Ser(BZL)-N′-phenyl-N-piperazinamide, (R)-2-amino-3-(benzyloxy)-1-(4-phenylpiperazin-1-yl)propan-1-one]
GH release, second line of entry (no mark) ([2]; Table 10, 10 μg/ml): 719 ± 26 ng/mL
GH release, first line of entry (mark P + S) ([2]; Table 10, 10 μg/ml): 585 ± 10 ng/mL
GH release, second line of entry (no mark) ([2]; Table 10, 30 μg/ml): 435 ± 0 ng/mL
GH release, first line of entry (mark P + S) ([2]; Table 10, 30 μg/ml): 368 ± 2 ng/mL

CC(C)(N)C(=O)N[C@H](COCc1ccccc1)C(=O)N1CCN(c2ccccc2)CC1 [αAibDSer(BZL)-N′-phenyl-N-piperazinamide, (R)-2-amino-N-(3-(benzyloxy)-1-oxo-1-(4-phenylpiperazin-1-yl)propan-2-yl)-2-methylpropanamide]
GH release, second line of entry (no mark) ([2]; Table 10, 10 μg/ml): 878 ± 30 ng/mL
GH release, first line of entry (mark P + S) ([2]; Table 10, 10 μg/ml): 777 ± 34 ng/mL
GH release, second line of entry (no mark) ([2]; Table 10, 30 μg/ml): 510 ± 15 ng/mL
GH release, first line of entry (mark P + S) ([2]; Table 10, 30 μg/ml): 499 ± 18 ng/mL

NCC[C@H](N)C(=O)N[C@H](COCc1ccc2ccccc2c1)C(=O)N1CCC(c2ccccc2)CC1 [(S)-2,4-diamino-N—((R)-3-(naphthalen-2-ylmethoxy)-1-oxo-1-(4-phenylpiperidin-1-yl)propan-2-yl)butanamide]
GH release, second line of entry (no mark) ([2]; Table 11, 10 μg/ml): 644 ± 33 ng/mL
GH release, first line of entry (mark P + S) ([2]; Table 11, 10 μg/ml): 794 ± 34 ng/mL
GH release, second line of entry (no mark) ([2]; Table 11, 30 μg/ml): 529 ± 20 ng/mL
GH release, first line of entry (mark P + S) ([2]; Table 11, 30 μg/ml): 504 ± 20 ng/mL

DAla-DcyclohexylAla-Ala-Ala-Phe-DPhe-Nle-NH2
Unstimulated Basal GH release ([2]; peptide 1 μg/ml): 286 ± 75 ng/mL
Unstimulated Basal GH release ([2]; peptide 3 μg/ml): 177 ± 44 ng/mL
Unstimulated Basal GH release ([2]; peptide 10 μg/ml): 271 ± 38 ng/mL
Unstimulated Basal GH release ([2]; peptide 30 μg/ml): 376 ± 28 ng/mL

COc1ccccc1N1CCN(C(=O)c2cc3ccccc3cc2C(=O)N2CCN(c3ccccc3OC)CC2)CC1 [naphthalene-2,3-diylbis((4-(2-methoxyphenyl)piperazin-1-yl)methanone)]
GH release, second line of entry (no mark) ([2]; Table 10, 1 μg/ml): 654 ± 18 ng/mL
GH release, first line of entry (mark P + S) ([2]; Table 10, 1 μg/ml): 338 ± 3 ng/mL
GH release, second line of entry (no mark) ([2]; Table 10, 3 μg/ml): 442 ± 4 ng/mL
GH release, first line of entry (mark P + S) ([2]; Table 10, 3 μg/ml): 204 ± 10 ng/mL
GH release, second line of entry (no mark) ([2]; Table 10, 10 μg/ml): 537 ± 28 ng/mL and 648 ± 16 ng/mL
GH release, first line of entry (mark P + S) ([2]; Table 10, 10 μg/ml): 262 ± 4 ng/mL and 136 ± 11 ng/mL
GH release, second line of entry (no mark) ([2]; Table 10, 30 μg/ml): 309 ± 46 ng/mL
GH release, first line of entry (mark P + S) ([2]; Table 10, 30 μg/ml): 118 ± 8 ng/mL

COc1ccccc1C1CCN(C(=O)[C@@H](Cc2c[nH]c3ccccc23)NC(=O)C(C)(C)N)CC1 [(R)—N-(3-(1H-indol-3-yl)-1-(4-(2-methoxyphenyl)piperidin-1-yl)-1-oxopropan-2-yl)-2-amino-2-methylpropanamide]
GH release, second line of entry (no mark) ([2]; Table 11, 10 μg/ml): 441 ± 21 ng/mL
GH release, first line of entry (mark P + S) ([2]; Table 11, 10 μg/ml): 365 ± 2 ng/mL
GH release, second line of entry (no mark) ([2]; Table 11, 30 μg/ml): 384 ± 16 ng/mL
GH release, first line of entry (mark P + S) ([2]; Table 11, 30 μg/ml): 375 ± 30 ng/mL

C=C(C)CON=C(c1ccccc1)c1ccccc1 [O-(2-methylallyl) benzophonone oxime, O-(2-methylallyl)benzophenone oxime]
GH release, second line of entry (no mark) ([2]; Table 10, 10 μg/ml): 1281 ± 58 ng/mL
GH release, first line of entry (mark P + S) ([2]; Table 10, 10 μg/ml): 929 ± 28 ng/mL
GH release, second line of entry (no mark) ([2]; Table 10, 30 μg/ml): 699 ± 53 ng/mL
GH release, first line of entry (mark P + S) ([2]; Table 10, 30 μg/ml): 616 ± 23 ng/mL

N[C@H](Cc1c[nH]c2ccccc12)C(=O)N1CCC(c2ccccc2)CC1 [DTrp-4-phenylpiperdinamide, (R)-2-amino-3-(1H-indol-3-yl)-1-(4-phenylpiperidin-1-yl)propan-1-one]
GH release, second line of entry (no mark) ([2]; Table 10, 1 μg/ml): 1085 ± 1 ng/mL
GH release, first line of entry (mark P + S) ([2]; Table 10, 1 μg/ml): 815 ± 26 ng/mL
GH release, second line of entry (no mark) ([2]; Table 10, 3 μg/ml): 917 ± 4 ng/mL
GH release, first line of entry (mark P + S) ([2]; Table 10, 3 μg/ml): 390 ± 35 ng/mL
GH release, second line of entry (no mark) ([2]; Table 10, 10 μg/ml): 344 ± 6 ng/mL
GH release, first line of entry (mark P + S) ([2]; Table 10, 10 μg/ml): 520 ± 61 ng/mL
GH release, second line of entry (no mark) ([2]; Table 10, 30 μg/ml): 486 ± 29 ng/mL
GH release, first line of entry (mark P + S) ([2]; Table 10, 30 μg/ml): 577 ± 24 ng/mL

COC(=O)c1cc2ccccc2cc1C(=O)Nc1ccc(C)cc1 [methyl 3-(p-tolylcarbamoyl)-2-naphthoate]
GH release, second line of entry (no mark) ([2]; Table 11, 10 μg/ml): 1149 ± 33 ng/mL
GH release, first line of entry (mark P + S) ([2]; Table 11, 10 μg/ml): 754 ± 32 ng/mL
GH release, second line of entry (no mark) ([2]; Table 11, 30 μg/ml): 886 ± 29 ng/mL
GH release, first line of entry (mark P + S) ([2]; Table 11, 30 μg/ml): 498 ± 26 ng/mL

CCOC(=O)c1cc2ccccc2cc1C(=O)N1CCC(c2ccccc2OC)CC1 [ethyl 3-(4-(2-methoxyphenyl)piperidine-1-carbonyl)-2-naphthoate]
GH release, second line of entry (no mark) ([2]; Table 10, 10 μg/ml): 480 ± 9 ng/mL
GH release, first line of entry (mark P + S) ([2]; Table 10, 10 μg/ml): 373 ± 2 ng/mL
GH release, second line of entry (no mark) ([2]; Table 10, 30 μg/ml): 223 ± 22 ng/mL
GH release, first line of entry (mark P + S) ([2]; Table 10, 30 μg/ml): 176 ± 11 ng/mL

CC(=O)N[C@@H](COCc1ccccc1)C(=O)N[C@@H](CCCCN)C(=O)N[C@H](Cc1c[nH]c2ccccc12)C(=O)N1CCC(c2ccccc2)CC1 [(S)—N—((R)-3-(1H-indol-3-yl)-1-oxo-1-(4-phenylpiperidin-1-yl)propan-2-yl)-2-((S)-2-acetamido-3-(benzyloxy)propanamido)-6-aminohexanamide]
GH release, first line of entry (mark P + S) ([2]; Table 11, 1 μg/ml): 680 ± 13 ng/mL
GH release, first line of entry (mark P + S) ([2]; Table 11, 3 μg/ml): 489 ± 41 ng/mL
GH release, first line of entry (mark P + S) ([2]; Table 11, 10 μg/ml): 245 ± 16 ng/mL

NCCCC[C@@H](NC(=O)[C@@H](CO)NC(=O)c1ccccc1)C(=O)N[C@@H](Cc1c[nH]c2ccccc12)C(=O)N1CCC(c2ccccc2)CC1 [N—((R)-1-((R)-1-((S)-3-(1H-indol-3-yl)-1-oxo-1-(4-phenylpiperidin-1-yl)propan-2-ylamino)-6-amino-1-oxohexan-2-ylamino)-3-hydroxy-1-oxopropan-2-yl)benzamide]
GH release, second line of entry (no mark) ([2]; Table 10, 3 μg/ml): 432 ± 25 ng/mL
GH release, first line of entry (mark P + S) ([2]; Table 10, 3 μg/ml): 393 ± 54 ng/mL
GH release, second line of entry (no mark) ([2]; Table 10, 10 μg/ml): 353 ± 10 ng/mL
GH release, first line of entry (mark P + S) ([2]; Table 10, 10 μg/ml): 369 ± 30 ng/mL
